Test results as given in US9115122B2, “Non-ATP dependent inhibitors of extracellular signal-regulated kinase (ERK)” (UNIVERSITY OF MARYLAND, BALTIMORE, priority 2012, dated 2015).

Assays:
Assay in all cases: Cell proliferation WST-1 assay, single dose (Example 4)
Format in all cases: cell-based
Conditions in all cases: 100 μM, 48 hours
[1] = test system: HeLa cervical carcinoma cells
How it was run: (§1)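 Proliferation is measured by WST-1 reduction: after roughly 5000 cells per well rest 16-20 hours, they receive compound for 48 hours, and the signal is normalized to DMSO control.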

[2] = test system: Jurkat T-cell leukemia cells
How it was run: as §1

[3] = test system: HL-60 leukemic cells
How it was run: as §1

[4] = test system: SK-MEL-28 melanoma cells
How it was run: as §1

[5] = test system: RPMI-7951 melanoma cells
How it was run: as §1

[6] = test system: A375 melanoma cells
How it was run: as §1

Row | SMILES | Cell Viability (% of Vehicle) HeLa [1] | Cell Viability (% of Vehicle) Jurkat [2] | Cell Viability (% of Vehicle) HL-60 [3] | Cell Viability (% of Vehicle) SK-MEL-28 [4] | Cell Viability (% of Vehicle) RPMI-7951 [5] | Cell Viability (% of Vehicle) A375 [6]
1 | CCOc1ccc(/C=C2\SC(=O)N(Cc3ccc([N+](=O)[O-])cc3)C2=O)cc1 [Compound 28n, (Z)-5-(4-ethoxybenzylidene)-3-(4-nitrobenzyl)thiazolidine-2,4-dione] | 97 ± 9 % of Vehicle | 101 ± 9 % of Vehicle | 97 ± 23 % of Vehicle | 104 ± 3 % of Vehicle | 119 ± 13 % of Vehicle | 117 ± 3 % of Vehicle
2 | CCOc1ccc(/C=C2\SC(=O)N(Cc3ccc(N)cc3)C2=O)cc1 [Compound 28o, (Z)-3-(4-aminobenzyl)-5-(4-ethoxybenzylidene)thiazolidine-2,4-dione] | 89 ± 9 % of Vehicle | 97 ± 7 % of Vehicle | 86 ± 21 % of Vehicle | 94 ± 5 % of Vehicle | 102 ± 23 % of Vehicle | 119 ± 6 % of Vehicle
3 | CCOc1ccc(/C=C2\SC(=O)N(Cc3ccc(C(=O)OC(C)(C)C)cc3)C2=O)cc1 [Compound 28p, (Z)-tert-butyl 4-((5-(4-ethoxybenzylidene)-2,4-dioxothiazolidin-3-yl)methyl)benzoate] | 100 ± 6 % of Vehicle | 101 ± 2 % of Vehicle | 98 ± 24 % of Vehicle | 105 ± 3 % of Vehicle | 122 ± 1 % of Vehicle | 119 ± 1 % of Vehicle
4 | CCOc1ccc(/C=C2\SC(=O)N(Cc3ccc(C(=O)O)cc3)C2=O)cc1 [Compound 28q, (Z)-4-((5-(4-ethoxybenzylidene)-2,4-dioxothiazolidin-3-yl)methyl)benzoic acid] | 64 ± 2 % of Vehicle | 85 ± 3 % of Vehicle | 84 ± 37 % of Vehicle | 59 ± 13 % of Vehicle | 34 ± 3 % of Vehicle | 2.0 ± 0.5 % of Vehicle
5 | CCOc1ccc(/C=C2\SC(=O)N(Cc3cccc(C(=O)O)c3)C2=O)cc1 [Compound 28r, (Z)-3-((5-(4-ethoxybenzylidene)-2,4-dioxothiazolidin-3-yl)methyl)benzoic acid] | 75 ± 4 % of Vehicle | 80 ± 3 % of Vehicle | 41 ± 22 % of Vehicle | 83 ± 7 % of Vehicle | 83 ± 6 % of Vehicle | 59 ± 1 % of Vehicle
6 | CCOc1ccc(/C=C2\SC(=O)N(Cc3ccccc3C(=O)O)C2=O)cc1 [Compound 28s, (Z)-2-((5-(4-ethoxybenzylidene)-2,4-dioxothiazolidin-3-yl)methyl)benzoic acid] | 61 ± 4 % of Vehicle | 46 ± 1 % of Vehicle | 31 ± 15 % of Vehicle | 49 ± 8 % of Vehicle | 45 ± 8 % of Vehicle | 39 ± 1 % of Vehicle
7 | NCCN1C(=O)S/C(=C\c2ccccc2)C1=O [Compound 30a, (Z)-3-(2-aminoethyl)-5-benzylidenethiazolidine-2,4-dione] | 82 ± 10 % of Vehicle | 88 ± 4 % of Vehicle | 28 ± 20 % of Vehicle | 88 ± 7 % of Vehicle | 89 ± 17 % of Vehicle | 82 ± 9 % of Vehicle
8 | CCOc1cccc(/C=C2\SC(=O)N(CCN)C2=O)c1 [Compound 30b, (Z)-3-(2-aminoethyl)-5-(3-ethoxybenzylidene)thiazolidine-2,4-dione] | 40 ± 1 % of Vehicle | 54 ± 5 % of Vehicle | 4.8 ± 2 % of Vehicle | 36 ± 6 % of Vehicle | 30 ± 2 % of Vehicle | 19 ± 3 % of Vehicle
9 | CCOc1ccccc1/C=C1\SC(=O)N(CCN)C1=O [Compound 30c, (Z)-3-(2-aminoethyl)-5-(2-ethoxybenzylidene)thiazolidine-2,4-dione] | 39 ± 3 % of Vehicle | 66 ± 5 % of Vehicle | 8.9 ± 4 % of Vehicle | 52 ± 11 % of Vehicle | 45 ± 2 % of Vehicle | 22 ± 9 % of Vehicle
10 | Cc1ccc(/C=C2\SC(=O)N(CCN)C2=O)cc1 [Compound 30d, (Z)-3-(2-aminoethyl)-5-(4-methylbenzylidene)thiazolidine-2,4-dione] | 54 ± 3 % of Vehicle | 71 ± 6 % of Vehicle | 4.8 ± 2 % of Vehicle | 31 ± 7 % of Vehicle | 23 ± 1 % of Vehicle | 23 ± 6 % of Vehicle
11 | CCCc1ccc(/C=C2\SC(=O)N(CCN)C2=O)cc1 [Compound 30e, (Z)-3-(2-aminoethyl)-5-(4-propylbenzylidene)thiazolidine-2,4-dione] | 11 ± 2 % of Vehicle | 16 ± 8 % of Vehicle | 5.9 ± 2 % of Vehicle | 0.6 ± 0.4 % of Vehicle | 0.7 ± 0.1 % of Vehicle | 0.6 ± 0.1 % of Vehicle
12 | NCCN1C(=O)S/C(=C\c2ccc(O)cc2)C1=O [Compound 30f, (Z)-3-(2-aminoethyl)-5-(4-hydroxybenzylidene)thiazolidine-2,4-dione] | 63 ± 10 % of Vehicle | 96 ± 3 % of Vehicle | 17 ± 12 % of Vehicle | 38 ± 3 % of Vehicle | 24 ± 5 % of Vehicle | 8.8 ± 2 % of Vehicle
13 | NCCN1C(=O)S/C(=C\c2ccccc2O)C1=O [Compound 30i, (Z)-3-(2-aminoethyl)-5-(2-hydroxybenzylidene)thiazolidine-2,4-dione] | 68 ± 3 % of Vehicle | 99 ± 5 % of Vehicle | 24 ± 8 % of Vehicle | 85 ± 9 % of Vehicle | 102 ± 10 % of Vehicle | 78 ± 3 % of Vehicle
14 | CC(C)COc1ccccc1/C=C1\SC(=O)N(CCN)C1=O [Compound 30j, (Z)-3-(2-aminoethyl)-5-(2-isobutoxybenzylidene)thiazolidine-2,4-dione] | 0.8 ± 0.1 % of Vehicle | 1.8 ± 0.1 % of Vehicle | 9.5 ± 3.4 % of Vehicle | 1.0 ± 0.1 % of Vehicle | 1.0 ± 0.04 % of Vehicle | 0.8 ± 0.02 % of Vehicle
15 | NCCN1C(=O)S/C(=C\c2ccccc2OCc2ccccc2)C1=O [Compound 30k, (Z)-3-(2-aminoethyl)-5-(2-(benzyloxy)benzylidene)thiazolidine-2,4-dione] | 0.6 ± 0.1 % of Vehicle | 1.5 ± 0.1 % of Vehicle | 8.3 ± 3.4 % of Vehicle | 0.6 ± 0.04 % of Vehicle | 0.9 ± 0.1 % of Vehicle | 0.6 ± 0.03 % of Vehicle
16 | N#Cc1ccc(COc2ccccc2/C=C2\SC(=O)N(CCN)C2=O)cc1 [Compound 30l, (Z)-4-((2-((3-(2-aminoethyl)-2,4-dioxothiazolidin-5-ylidene)methyl)phenoxy)methyl)benzonitrile] | 8.0 ± 2 % of Vehicle | 6.7 ± 1 % of Vehicle | 5.7 ± 2 % of Vehicle | 0.5 ± 0.01 % of Vehicle | 0.6 ± 0.03 % of Vehicle | 0.5 ± 0.04 % of Vehicle
